One block for each compound: values may come before it.
What was measured:
Test in all cases: SPR (equilibrium)
[1] = system: TZea-579 (full length, G12A, SPR form) (RNA, ribozyme) GGGAAACAAACAAAGCUGUCACCGGGUAGAACAGAAUGCAAGUGCGUAGAAGCGCCUCCGGUCUGACGAGUCCUUAGCACGGACAAAACAGCAAAAAAAAAAAAAAAAAAAAAAAA; settings: Na+ (1.5 M NaCl [sic]), Mg2+ 0.5 mM; HBS-N (0.1 M HEPES [sic]), pH 7.4
[2] = system: TZea-927 (full length, G12A, SPR form) (RNA, ribozyme) GGGAAACAAACAAAGCUGUCACCGGAAACUGGAUCUGGUCUGAUGAGUCCCUCCAUGCGACCCAGUGUGAUACGUGGACAGGACAAAACAGCAAAAAAAAAAAAAAAAAAAAAAAA; settings: Na+ (1.5 M NaCl [sic]), Mg2+ 0.5 mM; HBS-N (0.1 M HEPES [sic]), pH 7.4
[3] = system: TZea-927 large stem loop (T7_zea927_polyA) (RNA, aptamer) GGGGUCCCUCCAUGCGACCCAGUGUGAUACGUGGACAGGACCCCCAAAAAAAAAAAAAAAAAAAAAAAA; settings: Na+ (1.5 M NaCl [sic]), Mg2+ 0.5 mM; HBS-N (0.1 M HEPES [sic]), pH 7.4
[4] = system: TZea-579 large stem loop (RNA, aptamer) GGGACCGGGUAGAACAGAAUGCAAGUGCGUAGAAGCGCCUCCGGUCCCCAAAAAAAAAAAAAAAAAAAAAAAA; settings: Na+ (1.5 M NaCl [sic]), Mg2+ 0.5 mM; HBS-N (0.1 M HEPES [sic]), pH 7.4
[5] = system: Gard-547 (full length, G12A, SPR form) (RNA, ribozyme) GGGAAACAAACAAAGCUGUCACCGGAAUAGUCGAUGGGUGCUACAUAGCGCCGGAAUCCAGUCUGAUGAGUCUCUCGGCAGGACAAAACAGCAAAAAAAAAAAAAAAAAAAAAAAA; settings: Na+ (1.5 M NaCl [sic]), Mg2+ 0.5 mM; HBS-N (0.1 M HEPES [sic]), pH 7.4; no replicates
[6] = system: SRet-584 (full length, G12A, SPR form) (RNA, ribozyme) GGGAAACAAACAAAGCUGUCACUGGACGCAAAAAUUCCAGUCUGAUGAGUCCAUAAUGAGCAACAACACGAUUCCUCAUGCGGGACAAAACAGCAAAAAAAAAAAAAAAAAAAAAAAA; settings: Na+ (1.5 M NaCl [sic]), Mg2+ 0.5 mM; HBS-N (0.1 M HEPES [sic]), pH 7.4
[7] = system: SRet-760 (full length, G12A, SPR form) (RNA, ribozyme) GGGAAACAAACAAAGCUGUCACUGGACCCUAACAUUCCAGUCUGAUGAGUCCUAUAGGCACGCUUCCCCCAGGUGUAGGGAGGACAAAACAGCAAAAAAAAAAAAAAAAAAAAAAAA; settings: Na+ (1.5 M NaCl [sic]), Mg2+ 0.5 mM; HBS-N (0.1 M HEPES [sic]), pH 7.4
[8] = system: SRet-760 large stem loop (T7_SRet760_polyA) (RNA, aptamer) GGGGUCCUAUAGGCACGCUUCCCCCAGGUGUAGGGAGGACCCCCAAAAAAAAAAAAAAAAAAAAAAAA; settings: Na+ (1.5 M NaCl [sic]), Mg2+ 0.5 mM; HBS-N (0.1 M HEPES [sic]), pH 7.4
[9] = system: Nosc-441 (full length, G12A, SPR form) (RNA, ribozyme) GGGAAACAAACAAAGCUGUCACCGGAAGAACUGACAUUUGCAACGUCAUGUGCGAUGUCCAACGUGUAGCCACCUAGGCGUACAGAUCCGGUCUGAUGAGUCCUCGAUGGACAAAACAGCAAAAAAAAAAAAAAAAAAAAAAAA; settings: Na+ (1.5 M NaCl [sic]), Mg2+ 0.5 mM; HBS-N (0.1 M HEPES [sic]), pH 7.4
[10] = system: Nosc-786 (full length, G12A, SPR form) (RNA, ribozyme) GGGAAACAAACAAAGCUGUCACCGGAAGAACUUACAUUUGCAACGUCAUGUGCGAUGUCCAACGUGUAGCCACCUAGGCGUACAGAUCCGGUCCGAUGAGUCCUCGAUGGACAAAACAGCAAAAAAAAAAAAAAAAAAAAAAAA; settings: Na+ (1.5 M NaCl [sic]), Mg2+ 0.5 mM; HBS-N (0.1 M HEPES [sic]), pH 7.4
[11] = system: Nosc-441 large stem loop (RNA, aptamer) GGGACCGGAAGAACUGACAUUUGCAACGUCAUGUGCGAUGUCCAACGUGUAGCCACCUAGGCGUACAGAUCCGGUCCCCAAAAAAAAAAAAAAAAAAAAAAAA; settings: Na+ (1.5 M NaCl [sic]), Mg2+ 0.5 mM; HBS-N (0.1 M HEPES [sic]), pH 7.4
[12] = system: Theo-421 truncation, minimum free energy structure (T7_theo421_polyA_MFE) (RNA, aptamer) GGGGUCCCUCAUGUGCCUUCCAGCGGUACGAUACUCAGGACCCCCAAAAAAAAAAAAAAAAAAAAAAAA; settings: Na+ (1.5 M NaCl [sic]), Mg2+ 0.5 mM; HBS-N (0.1 M HEPES [sic]), pH 7.4
[13] = system: Theo-421 (full length, G12A, SPR form) (RNA, ribozyme) GGGAAACAAACAAAGCUGUCACCGGAAUGUGAGUCCGGUCUGAUGAGUCCCUCAUGUGCCUUCCAGCGGUACGAUACUCAGGACAAAACAGCAAAAAAAAAAAAAAAAAAAAAAAA; settings: Na+ (1.5 M NaCl [sic]), Mg2+ 0.5 mM; HBS-N (0.1 M HEPES [sic]), pH 7.4
[14] = system: Theo-421 truncation, 1st suboptimal structure (T7_theo421_polyA_subopt1) (RNA, aptamer) GGGUGAGUCCCUCAUGUGCCUUCCAGCGGUACGAUACUCACCCCAAAAAAAAAAAAAAAAAAAAAAAA; settings: Na+ (1.5 M NaCl [sic]), Mg2+ 0.5 mM; HBS-N (0.1 M HEPES [sic]), pH 7.4
[15] = system: Acic-145 large stem loop (T7_acic145_polyA) (RNA, aptamer) GGGACCGGAAUAACCGAAGUAGUUUAUGGGCUACCGAAAUCCGGUCCCCAAAAAAAAAAAAAAAAAAAAAAAA; settings: Na+ (1.5 M NaCl [sic]), Mg2+ 0.5 mM; HBS-N (0.1 M HEPES [sic]), pH 7.4
[16] = system: Acic-145 (full length, G12A, SPR form) (RNA, ribozyme) GGGAAACAAACAAAGCUGUCACCGGAAUAACCGAAGUAGUUUAUGGGCUACCGAAAUCCGGUCUGAUGAGUCCUCGGGGUGGACAAAACAGCAAAAAAAAAAAAAAAAAA; settings: Na+ (1.5 M NaCl [sic]), Mg2+ 0.5 mM; HBS-N (0.1 M HEPES [sic]), pH 7.4

SMILES: C/C(=C\CNc1ncnc2[nH]cnc12)CO
KD [1]: 3.1 ± 0.5 µM
KD [2]: 62 ± 20 µM
binding [3]: no
KD [4]: 37 ± 3 µM

SMILES: CCNCc1nc2c(N)nc3ccccc3c2n1CC(C)(C)O
KD [5]: 0.0101 µM

SMILES: Cn1c(=O)c2[nH]cnc2n(C)c1=O
binding [12]: no
KD [13]: 68 ± 20 µM
KD [14]: 17.0 ± 0.7 µM

SMILES: Nc1nc2c(ncn2COCCO)c(=O)[nH]1
KD [15]: 0.700 ± 0.004 µM
KD [16]: 1.5 ± 0.3 µM

Other lines, results leading:

Equilibrium KD [6]: 0.465 µM
KD [7]: 0.15 ± 0.01 µM
binding [8]: no
SMILES: COc1ccc(C[C@H]2c3cc(O)c(OC)cc3CCN2C)cc1O

KD [9]: 13 ± 2 µM
Equilibrium KD [10]: 28.7 µM
KD [11]: 20 ± 7 µM
SMILES: COc1ccc2c(c1OC)C(=O)O[C@@H]2[C@H]1c2c(cc3c(c2OC)OCO3)CCN1C

Source: paper PMC7933316 (2021)
